Measured values from ChEMBL document CHEMBL1146296, “Influence of an additional 2-amino substituent of the 1-aminoethyl pharmacophore group on the potency of rimantadine against influenza virus A” (Bioorg Med Chem Lett, 2007).
Active and inactive are the calls of the source. The calls are words filed in the database; no cut-off is given here.

What was measured:
Influenza B virus = assay: Antiviral activity against influenza B virus; type: functional, organism-based
Influenza A virus [1] = assay: Antiviral activity against influenza A virus (H3N2)-induced cytopathogenicity in MDCK cells by MTS method; type: functional, organism-based
MDCK = assay: Cytotoxicity against MDCK cells; type: cell-based, Canis lupus familiaris; settings: dog
Influenza A virus [2] = assay: Antiviral activity against influenza A virus (H3N2) assessed as inhibition of viral replication; type: functional, organism-based

| SMILES | Activity (Influenza B virus) | EC50 (Influenza A virus [1]) [µM] | MTC (MDCK) [µM] | Activity (Influenza A virus [2]) |
| --- | --- | --- | --- | --- |
| CN1CC(C23CC4CC(CC(C4)C2)C3)N(C)C1=O (stereo not drawn) | inactive | 107 | 1007 |  |
| CC(N)C12CC3CC(CC(C3)C1)C2.Cl (stereo not drawn) [RIMANTADINE HYDROCHLORIDE] |  | 19.1 | > 1160 |  |
| O=C1CNC(C23CC4CC(CC(C4)C2)C3)CN1 (stereo not drawn) | inactive | 91.8 | > 1067 | Active |
| C1CNC(C23CC4CC(CC(C4)C2)C3)C1.Cl (stereo not drawn) |  | 51.3 | 1035 |  |
| CN1CCN(C)C(C23CC4CC(CC(C4)C2)C3)C1.O=C(O)/C=C\C(=O)O (stereo not drawn) | inactive | 351 | > 520 |  |
| CN1CCNCC1C12CC3CC(CC(C3)C1)C2.O=C(O)/C=C\C(=O)O (stereo not drawn) | inactive | 197 | > 535 |  |
| Cl.NC12CC3CC(CC(C3)C1)C2 [AMANTADINE HYDROCHLORIDE] |  | 49.1 | > 1333 |  |
| NCC(N)C12CC3CC(CC(C3)C1)C2.O=C(O)/C=C\C(=O)O (stereo not drawn) | inactive | 18.3 | > 586 | Active |
| CN1C(=O)NCC1C12CC3CC(CC(C3)C1)C2 (stereo not drawn) | inactive | 269 | > 1067 |  |
| C1CNC(C23CC4CC(CC(C4)C2)C3)CN1.O=C(O)/C=C\C(=O)O (stereo not drawn) | inactive | 24.1 | > 553 | Active |
| CN1CC(=O)NCC1C12CC3CC(CC(C3)C1)C2 (stereo not drawn) | inactive | 604 | > 1007 |  |
| C1CCC(C23CC4CC(CC(C4)C2)C3)NC1.Cl (stereo not drawn) |  | 70.5 | 978 |  |
| CNC(CN)C12CC3CC(CC(C3)C1)C2.O=C(O)/C=C\C(=O)O (stereo not drawn) | inactive | 56.8 | > 568 | Active |
| O=C1NCC(C23CC4CC(CC(C4)C2)C3)N1 (stereo not drawn) | inactive | 72.6 | > 1135 | Active |
